Measured values taken from patent EP3315028B1, “USE OF INHIBITORS OF NLP PROTEINS AS PHYTOPHARMACEUTICALS FOR PLANT PATHOGEN CONTROL” (Kemijski Institut, priority 2016, dated 2018).
“Also recorded” adds a separate entry of the source.

Key:
tobacco leaves = experiment: Control infiltration of tobacco leaves with compounds alone (necrosis); conditions: compound at the final 1 mM concentration, no NLP protein, 5 % DMSO (Figure 4)
Protocol: This biological test may be used to assess the impact of compounds on the functionality of NLPs. The NLP protein solution is injected in the absence or presence of the compounds into tobacco leaves of healthy plants. The plants are then observed for 1-3 days and checked for the presence of necrosis.
Compounds: Compounds were prepared as stock solutions with a concentration of 10 mM in DMSO. Appropriate working solutions were prepared by appropriate dilution of the stock solution. The concentration of DMSO in the test solution was 5 %.
Tobacco plants: Tobacco plants (Nicotiana tabacum White Burley) were cultured in chambers for growing plants under controlled conditions of light, humidity and temperature up to the age of 5-7 weeks.
Protein solution, compound and appropriate volume of ultrapure water were mixed in Eppendorf tubes. The mixture was mixed well and injected in the lower epidermis of tobacco leaves. We have injected 50 µL of solution. The area of injected solution was labelled on tobacco leaves. We used ultrapure water, 5 % DMSO, protein solutions of NLPs at different concentrations and appropriate dilutions of compounds as control solutions. The area on the lower side of the leaf, which was infiltrated with solutions, was photographed immediately after injection, and then after 24, 48 and 72 hours. On the third day the plant leaf was photographed also from the top side.

Phytophthora infestans = type: in vivo, Phytophthora infestans (strain 88069); conditions: for growth of the pathogen P. infestans on potato leaves, visual analysis: 1 mM compound in 10 µL drops with 5 × 10^4 mL^-1 zoospores, 4 days, 18 °C, vs control compound (Figure 6A); for amount of pathogen DNA by real-time PCR, control samples vs samples with compound: 1 mM compound, potato leaves 4 days after infection, Student's t-test, *** P <0.001 (Figure 6B)

| Compound | necrosis of tobacco leaves caused by compound solution alone (tobacco leaves) | growth of the pathogen P. infestans on potato leaves, visual analysis (Phytophthora infestans) | amount of pathogen DNA by real-time PCR, control samples vs samples with compound (Phytophthora infestans) |
| --- | --- | --- | --- |
| COc1ccc(Nc2ccccc2C(=O)O)cc1 [Compound IIa, 2-[(4-methoxyphenyl)amino]benzoic acid] | did not cause necrosis; also recorded: Necrosis was not caused | able to inhibit growth of the pathogen | statistically significant amounts of pathogen DNA in control samples |
| Cc1ccc2occ(C3NC(C(=O)O)CS3)c(=O)c2c1 (stereo not drawn) [Compound I, 2-(6-methyl-4-oxochromen-3-yl)-1,3-thiazolidin-3-ium-4-carboxylate] | did not cause necrosis; also recorded: Necrosis was not caused | able to inhibit growth of the pathogen | statistically significant amounts of pathogen DNA in control samples |
